Reference: paper PMC8371461 (Frontiers in Pharmacology, 2021)

Experiments:
RIOK2 = target: RIOK2; design: method as in Varin et al., 2015; details: ref Varin et al., 2015; cited from earlier work
PSC = test: LC3B positive autophagosomes, immunofluorescent staining; assay type: cell-based, mouse; details: 10 µM, three days
Experimental: (§1) Cells were fixed with PBS containing 0.5% of para-formaldehyde for 15 min at room temperature. After three washing steps in PBS, cells were permeabilized with PBS containing 0.3% of Triton X-100 (Sigma) for 1 h at room temperature. After washing with PBS three times, cells were incubated overnight with the anti-LC3B antibody in PBS with 1% bovine serum albumin (Sigma) at 4°C. After three washing steps in PBS, cells were incubated with the fluorescent secondary antibody for 90 min at 4°C in PBS with 1% bovine serum albumin. They were then incubated with […] DAPI (Thermofisher) in PBS for 15 min. After washing with PBS, cells were rinsed once in water prior to mounting in the FluorSave reagent (Millipore).
(§2) Depending of these transitory environmental conditions, autophagy can either promote survival or apoptosis ([Degtyarev et al., 2008]). PIK/AKT pathway inhibition has been reported to increase cell autophagy ([Palmieri et al., 2017]). More specifically, PIP4K2C has been described as a down-regulator of autophagy ([Sharma et al., 2019]).

HeLa cells = test: as above; assay type: cell-based; details: 10 µM, three days
Experimental: as §1, §2

SMILES	Kd (RIOK2)	number of LC3B-positive autophagosomes (PSC)	number of LC3B-positive autophagosomes (HeLa cells)
O=C(Cc1ccc(-c2ccccc2)cc1)Nc1ccccn1 [Diphenpyramide]	160 nM		
NC(=O)c1nc(Nc2ccccc2)sc1NC(=O)C1CCCCC1 [UNC-3230]		increased	increased
FC(F)(F)c1ccccc1-c1nc(NCc2cccs2)c2ccccc2n1 [NIH-12848]			confirmed in HeLa cells
